# Measured values as given in patent publication US20250312469A1 (CANGET BIOTEKPHARMA, priority 2024, published 2025).
# Legend:
# CYP3A4 mRNA = details: human, hepatocytes
# Source text: (2) CYP positive inducers (Table 58a) and Williams' Medium E (WME) were purchased from Sigma-Aldrich (St. Louis, MO, USA). Dulbecco's phosphate-buffered saline (DPBS, pH 7.4) was purchased from Invitrogen (Carlsbad, CA, USA). Hepatocyte culture medium (serum-free) for CYP induction was purchased from XenoTech (catalog #K2300, Lenexa, KS, USA). The CellTiter 96 AQueous ONE Solution Cell Proliferation Assay was obtained from Promega (Madison, WI, USA). All other chemicals and reagents were of analytical grade or higher. (3) Fresh human hepatocytes (Table 58b) seeded at ˜0.15 million cells/well in 48-well plates (˜0.75 million cells/mL) were purchased from Thermo Fisher Scientific (Grand Island, NY, USA) and BioreclamationIVT (Baltimore, MD, USA).
# Vehicle controls were treated in parallel with hepatocyte culture medium. […] (2) After the CYP induction treatment, the cells were used for a cell viability assay. […] The absorbance of formazan, which is proportional to the number of viable cells, was measured spectrophotometrically using the CellTiter 96 AQueous ONE Solution Cell Proliferation Assay. […] The concentration of RNA was determined using a Qubit Fluorometer with a Qubit RNA HS assay kit (Invitrogen). cDNA was synthesized from up to 1 μg of the total RNA harvested from the cells using a QuantiTect RT kit (Qiagen). […]
# UbE2T = target: T1, UbE2T (Homo sapiens, UniProt Q9NPD8); assay: ITC, Flag-UbE2T; assay type: binding; parameters: host or cells: HEK293T
# T1 sequence (Q9NPD8 1-197): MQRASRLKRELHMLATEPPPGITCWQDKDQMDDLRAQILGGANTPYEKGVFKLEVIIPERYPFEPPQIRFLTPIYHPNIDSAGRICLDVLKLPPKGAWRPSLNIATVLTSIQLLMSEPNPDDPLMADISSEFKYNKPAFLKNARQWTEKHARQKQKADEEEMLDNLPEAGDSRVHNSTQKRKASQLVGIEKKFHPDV
# Source text: Purification of Flag-tagged DDX5 (Flag-DDX5), USP2a (Flag-USP2), UbE2T (Flag-(bE2T) and topoisomerase 1 (Top1) (Flag-Top1) proteins: Flag-DDX5, Flag-USP2, Flag-UbE2T and Flag-Topl proteins were purified from the protein expression vector-transfected HEK293T cells by using the FLAG® M Purification Kit for mammalian expression systems (CELLMM2-IKT, Sigma). Briefly, sub-confluent populations of HEK293T cells were transfected with expression vectors for Flag-DDX5, Flag-USP2, Flag-UbE2T and Flag-Top1 (OriGene) using Lipofectamine 2000 (Invitrogen) as per the manufacturer's instructions. After 72h of transfection, cells were lysed in Cell Lytic M lysis reagent (Sigma Cat #C2978) containing a protease inhibitor cocktail. […]
# Replacement of the Tris-HCl buffer with the PBS buffer for purified proteins for drug-protein binding analyses using isothermal titration calorimetry (ITC): After the purified proteins were eluted from the agarose resin with 3×flag peptide, the same purified protein samples from different batches were combined. […] The PBS-resuspended protein samples were recovered from the reservoir and the protein concentrations were determined using the nano-drop reader (Bio-Rad) and BCA Protein Assay (Thermo/Pierce) for double-making sure the concentration. […]
# [1] = PK after single oral dose in tumor bearing mice
# [2] = HT29 tumor, single oral dose […]
# [3] = SW620 tumor, single oral dose […]
# [4] = mouse plasma, single oral dose […]
smiles,measurement,setting,value
CCC1(O)C(=O)OCc2c1cc1n(c2=O)Cc2cc3cc4c(cc3nc2-1)OCO4 (stereo not drawn) [FL118],minor induction of CYP3A4,CYP3A4 mRNA,5-8%
same,minor induction of CYP3A4 mRNA,CYP3A4 mRNA,FL118 induces a minor induction (5-8%) of CYP3A4
same,Kd,UbE2T,0.16 µM
same,Cl,[1]; [2],"8,440 g/hr/kg"
same,Tmax,[1]; [2],1.00 h
same,VD,[1]; [2],"51,700 g/kg"
same,t1/2,[1]; [2],4.24 h
same,Cl,"[1]; HT29 tumor, p.o. […]","8,440 g/hr/kg"
same,VD,"[1]; HT29 tumor, p.o. […]","51,700 g/kg"
same,Cl,[1]; [3],"6,710 g/hr/kg"
same,Tmax,[1]; [3],1.00 h
same,VD,[1]; [3],"28,900 g/kg"
same,t1/2,[1]; [3],2.99 h
same,Cl,"[1]; SW620 tumor, p.o. […]","6,710 g/hr/kg"
same,VD,"[1]; SW620 tumor, p.o. […]","28,900 g/kg"
same,concentration that can be reached in cancer cells,[1]; from the PK studies,≤ 0.025 µM
same,Cl,[1]; [4],"17,000 mL/hr/kg"
same,Tmax,[1]; [4],0.500 h
same,VD,[1]; [4],"126,000 mL/kg"
same,t1/2,[1]; [4],5.12 h
same,"FL118 concentration, individual mice","[1]; plasma, 1.0 h, single oral dose […]",19.1 ng/mL
same,"FL118 concentration, individual mice","[1]; plasma, 4.0 h, single oral dose […]",4.78 ng/mL
same,Cl,"[1]; plasma, p.o. […]","17,000 mL/hr/kg"
same,VD,"[1]; plasma, p.o. […]","126,000 mL/kg"
